Assay results reported in US11053204B2, “Pyrimidinyloxy benzene derivatives as herbicides” (FMC Corporation, priority 2015, dated 2021).

Tests used:
Type in all cases: in vivo
[1] = tested on: barnyardgrass (Echinochloa crus-galli); experiment: Test A preemergence, visual injury rating
Outline: (§1)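 Visual 0–100 rating (100 = complete control) taken about 10 d post-treatment relative to untreated checks. Preemergence: directed soil spray on sown loam/sand pots. Postemergence: seedlings 2–10 cm, 1–2 leaf. Non-phytotoxic solvent formulation with surfactant.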

kochia (Kochia scoparia) [2] = experiment: Test A preemergence, visual injury rating
Outline: as §1

[3] = tested on: barnyardgrass (Echinochloa crus-galli); experiment: Test C postemergence, plant response rating; settings: for Barnyardgrass plant response rating: scale 0 to 100 (0 no effect, 100 complete control)
Outline: (§2)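 Pre-emergence: seeds sown in loam soil–sand blend or silt loam and sprayed with test chemicals in a non-phytotoxic solvent mixture with surfactant. Post-emergence: plants 2 to 18 cm (1- to 4-leaf stage) in peat-based potting medium, same formulation. Greenhouse 13 to 15 d; visual rating 0 (no effect) to 100 (complete control) versus controls.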

[4] = tested on: blackgrass (Alopecurus myosuroides); experiment: Test C postemergence, plant response rating; settings: for Blackgrass plant response rating: scale 0 to 100 (0 no effect, 100 complete control)
Outline: as §2

[5] = tested on: chickweed (common chickweed, Stellaria media); experiment: Test C postemergence, plant response rating; settings: for Chickweed plant response rating: scale 0 to 100 (0 no effect, 100 complete control)
Outline: as §2

corn (Zea mays) = experiment: Test C postemergence, plant response rating; settings: for Corn plant response rating: scale 0 to 100 (0 no effect, 100 complete control)
Outline: as §2

[6] = tested on: crabgrass, large (large crabgrass, Digitaria sanguinalis); experiment: Test C postemergence, plant response rating; settings: for Crabgrass, Large plant response rating: scale 0 to 100 (0 no effect, 100 complete control)
Outline: as §2

[7] = tested on: foxtail, giant (giant foxtail, Setaria faberii); experiment: Test C postemergence, plant response rating; settings: for Foxtail, Giant plant response rating: scale 0 to 100 (0 no effect, 100 complete control)
Outline: as §2

kochia (Kochia scoparia) [8] = experiment: Test C postemergence, plant response rating; settings: for Kochia plant response rating: scale 0 to 100 (0 no effect, 100 complete control)
Outline: as §2

[9] = tested on: lambsquarters (Chenopodium album); experiment: Test C postemergence, plant response rating; settings: for Lambsquarters plant response rating: scale 0 to 100 (0 no effect, 100 complete control)
Outline: as §2

[10] = tested on: morningglory (Ipomoea coccinea); experiment: Test C postemergence, plant response rating; settings: for Morningglory plant response rating: scale 0 to 100 (0 no effect, 100 complete control)
Outline: as §2

[11] = tested on: nutsedge, yellow (yellow nutsedge, Cyperus esculentus); experiment: Test C postemergence, plant response rating; settings: for Nutsedge, Yellow plant response rating: scale 0 to 100 (0 no effect, 100 complete control)
Outline: as §2

[12] = tested on: oat, wild (wild oat Avena fatua); experiment: Test C postemergence, plant response rating; settings: for Oat, Wild plant response rating: scale 0 to 100 (0 no effect, 100 complete control)
Outline: as §2

[13] = tested on: oilseed rape (Brassica napus); experiment: Test C postemergence, plant response rating; settings: for Oilseed Rape plant response rating: scale 0 to 100 (0 no effect, 100 complete control)
Outline: as §2

[14] = tested on: ryegrass, Italian (Italian ryegrass, Lolium multiflorum); experiment: Test C postemergence, plant response rating; settings: for Ryegrass, Italian plant response rating: scale 0 to 100 (0 no effect, 100 complete control)
Outline: as §2

soybean (Glycine max) = experiment: Test C postemergence, plant response rating; settings: for Soybean plant response rating: scale 0 to 100 (0 no effect, 100 complete control)
Outline: as §2

[15] = tested on: wheat (winter wheat, Triticum aestivum); experiment: Test C postemergence, plant response rating
Outline: as §2

[16] = 31 g ai/ha, 0 to 100 scale, 0 no effect, 100 complete control
[17] = 125 g ai/ha, 0 to 100 scale (0 no effect, 100 complete control)

Structure (SMILES): N#CC(CCCC(F)(F)F)c1ccccc1Oc1ncc(Cl)cn1 (stereo not drawn) [Compound 144]
- Plant response rating, Barnyardgrass [1, 16]: 80
- Plant response rating, Barnyardgrass [1, 17]: 100
- Plant response rating, Kochia (kochia (Kochia scoparia) [2]; [16]): 90
- Plant response rating, Kochia (kochia (Kochia scoparia) [2]; [17]): 100
- Plant response rating, Barnyardgrass ([3]; 16 g ai/ha, scale of 0 to 100): 5
- Plant response rating, Barnyardgrass ([3]; 31 g ai/ha, scale 0 to 100): 5
- Barnyardgrass plant response rating ([3]; 62 g ai/ha): 10
- Barnyardgrass plant response rating ([3]; 125 g ai/ha): 10
- Plant response rating, Blackgrass ([4]; 16 g ai/ha, scale of 0 to 100): 10
- Plant response rating, Blackgrass ([4]; 31 g ai/ha, scale 0 to 100): 10
- Blackgrass plant response rating ([4]; 62 g ai/ha): 15
- Blackgrass plant response rating ([4]; 125 g ai/ha): 15
- Plant response rating, Chickweed ([5]; 16 g ai/ha, scale of 0 to 100): 50
- Plant response rating, Chickweed ([5]; 31 g ai/ha, scale 0 to 100): 55
- Chickweed plant response rating ([5]; 62 g ai/ha): 85
- Chickweed plant response rating ([5]; 125 g ai/ha): 85
- Plant response rating, Corn (corn (Zea mays); 16 g ai/ha, scale of 0 to 100): 15
- Plant response rating, Corn (corn (Zea mays); 31 g ai/ha, scale 0 to 100): 15
- Corn plant response rating (corn (Zea mays); 62 g ai/ha): 20
- Corn plant response rating (corn (Zea mays); 125 g ai/ha): 25
- Plant response rating, Crabgrass, Large ([6]; 16 g ai/ha, scale of 0 to 100): 10
- Plant response rating, Crabgrass, Large ([6]; 31 g ai/ha, scale 0 to 100): 25
- Crabgrass, Large plant response rating ([6]; 62 g ai/ha): 20
- Crabgrass, Large plant response rating ([6]; 125 g ai/ha): 25
- Plant response rating, Foxtail, Giant ([7]; 16 g ai/ha, scale of 0 to 100): 5
- Plant response rating, Foxtail, Giant ([7]; 31 g ai/ha, scale 0 to 100): 10
- Foxtail, Giant plant response rating ([7]; 62 g ai/ha): 30
- Foxtail, Giant plant response rating ([7]; 125 g ai/ha): 40
- Plant response rating, Kochia (kochia (Kochia scoparia) [8]; 16 g ai/ha, scale of 0 to 100): 85
- Plant response rating, Kochia (kochia (Kochia scoparia) [8]; 31 g ai/ha, scale 0 to 100): 90
- Kochia plant response rating (kochia (Kochia scoparia) [8]; 62 g ai/ha): 90
- Kochia plant response rating (kochia (Kochia scoparia) [8]; 125 g ai/ha): 90
- Plant response rating, Lambsquarters ([9]; 16 g ai/ha, scale of 0 to 100): 40
- Plant response rating, Lambsquarters ([9]; 31 g ai/ha, scale 0 to 100): 75
- Lambsquarters plant response rating ([9]; 62 g ai/ha): 70
- Lambsquarters plant response rating ([9]; 125 g ai/ha): 85
- Plant response rating, Morningglory ([10]; 16 g ai/ha, scale of 0 to 100): 30
- Plant response rating, Morningglory ([10]; 31 g ai/ha, scale 0 to 100): 20
- Morningglory plant response rating ([10]; 62 g ai/ha): 50
- Morningglory plant response rating ([10]; 125 g ai/ha): 60
- Plant response rating, Nutsedge, Yellow ([11]; 16 g ai/ha, scale of 0 to 100): 0
- Plant response rating, Nutsedge, Yellow ([11]; 31 g ai/ha, scale 0 to 100): 0
- Nutsedge, Yellow plant response rating ([11]; 62 g ai/ha): 10
- Nutsedge, Yellow plant response rating ([11]; 125 g ai/ha): 10
- Plant response rating, Oat, Wild ([12]; 16 g ai/ha, scale of 0 to 100): 20
- Plant response rating, Oat, Wild ([12]; 31 g ai/ha, scale 0 to 100): 30
- Oat, Wild plant response rating ([12]; 62 g ai/ha): 30
- Oat, Wild plant response rating ([12]; 125 g ai/ha): 35
- Plant response rating, Oilseed Rape ([13]; 16 g ai/ha, scale of 0 to 100): 35
- Plant response rating, Oilseed Rape ([13]; 31 g ai/ha, scale 0 to 100): 35
- Oilseed Rape plant response rating ([13]; 62 g ai/ha): 70
- Oilseed Rape plant response rating ([13]; 125 g ai/ha): 85
- Plant response rating, Ryegrass, Italian ([14]; 16 g ai/ha, scale of 0 to 100): 5
- Plant response rating, Ryegrass, Italian ([14]; 31 g ai/ha, scale 0 to 100): 10
- Ryegrass, Italian plant response rating ([14]; 62 g ai/ha): 15
- Ryegrass, Italian plant response rating ([14]; 125 g ai/ha): 20
- Plant response rating, Soybean (soybean (Glycine max); 16 g ai/ha, scale of 0 to 100): 30
- Plant response rating, Soybean (soybean (Glycine max); 31 g ai/ha, scale 0 to 100): 30
- Soybean plant response rating (soybean (Glycine max); 62 g ai/ha): 50
- Soybean plant response rating (soybean (Glycine max); 125 g ai/ha): 65
- Plant response rating, Wheat ([15]; 16 g ai/ha, scale of 0 to 100): 5
- Plant response rating, Wheat ([15]; 31 g ai/ha, scale 0 to 100): 5
- Wheat plant response rating ([15]; 125 g ai/ha, scale 0 to 100 (0 no effect, 100 complete control)): 15
